Measurements from patent publication US10563270B2, “Solid forms of menaquinols” (Gnosis S.p.A., priority 2015, dated 2020).

How the values were obtained:
[1] = test system: Caco-2 human adenocarcinoma cells; assay: Absorption of reduced or oxidised vitamin K2-(MK7) on cell monolayer of Caco-2 cells in vitro; format: in vitro ADME; conditions: for amount of vitamin internalized by the cell layer (μg of vitamin per g of homogenate): 100 μM vitamin applied to apical compartment, 1% ethanol
Method: Caco-2 human adenocarcinoma cells were cultured on a permeable insert inserted in the well of a microplate to form a confluent monolayer with the barrier function between an apical and a basolateral compartment. The perfect integrity of the monolayer was determined by testing for the absence of passage by lucifer yellow, a compound with low permeability. Samples of vitamin K2-(MK7), alternatively in the reduced form (menaquinol) or the oxidized form (menaquinone), were dissolved in ethanol and applied to the apical compartment, the 1% ethanol solution being added to the incubation buffer. The final solution in the incubation well was fixed at 100 μM of vitamin.
At the end of the incubation period the cell layer was removed from the insert and homogenized, and the homogenate was centrifuged. The amount of vitamin present in the supernatant was determined by HPLC. The centrifugation pellet was then resuspended in 1 ml of water, and 1.5 ml of isopropanol and 2.5 ml of hexane were added to the suspension. After stirring, the organic phase formed was analyzed, again by HPLC, for the concentration of vitamin K2 (MK7). The total of the two values was used to calculate the amount of vitamin internalized by the cell layer.

[2] = Stability tests of solid forms of reduced vitamin K2-(MK7) (oxidation of the reduced form over storage time); format: physicochemical; conditions: for Reduced (t/t0 %): percentage of the initial value of the reduced form; for percentage of the initial value of the reduced form: packaging Alu/vacuum

CC(C)=CCC/C(C)=C/CC/C(C)=C/CC/C(C)=C/CC/C(C)=C/CC/C(C)=C/CC/C(C)=C/CC1=C(C)C(=O)c2ccccc2C1=O [Oxidised vitamin, menaquinone 7, reference compound]
amount of vitamin internalized by the cell layer (μg of vitamin per g of homogenate) ([1]; mean of wells 1-4): 0.6 μg/g hom.
amount of vitamin internalized by the cell layer (μg of vitamin per g of homogenate) ([1]; well 1): 0.4 μg/g hom.
amount of vitamin internalized by the cell layer (μg of vitamin per g of homogenate) ([1]; well 2): 0.5 μg/g hom.
amount of vitamin internalized by the cell layer (μg of vitamin per g of homogenate) ([1]; well 3): 0.6 μg/g hom.
amount of vitamin internalized by the cell layer (μg of vitamin per g of homogenate) ([1]; well 4): 0.7 μg/g hom.

CC(C)=CCC/C(C)=C/CC/C(C)=C/CC/C(C)=C/CC/C(C)=C/CC/C(C)=C/CC/C(C)=C/Cc1c(C)c(O)c2ccccc2c1O [Reduced vitamin, menaquinol 7]
amount of vitamin internalized by the cell layer (μg of vitamin per g of homogenate) ([1]; mean of wells 1-4): 1.1 μg/g hom.
uptake by Caco-2 cell layer compared with the oxidized form ([1]; result in words, 100 μM vitamin): slightly but significantly higher uptake
amount of vitamin internalized by the cell layer (μg of vitamin per g of homogenate) ([1]; well 1): 0.8 μg/g hom.
amount of vitamin internalized by the cell layer (μg of vitamin per g of homogenate) ([1]; well 2): 1.6 μg/g hom.
amount of vitamin internalized by the cell layer (μg of vitamin per g of homogenate) ([1]; well 3): 1.0 μg/g hom.
amount of vitamin internalized by the cell layer (μg of vitamin per g of homogenate) ([1]; well 4): 0.8 μg/g hom.

CC(C)=CCC/C(C)=C/CC/C(C)=C/CC/C(C)=C/CC/C(C)=C/CC/C(C)=C/CC/C(C)=C/Cc1c(C)c(O)c2ccccc2c1O [menaquinol 7, reference compound]
Reduced (t/t0 %) ([2]; Time 0 days): 100%
Reduced (t/t0 %) ([2]; Time 3 days): 4%

CC(C)=CCC/C(C)=C/CC/C(C)=C/CC/C(C)=C/CC/C(C)=C/CC/C(C)=C/CC/C(C)=C/Cc1c(C)c(O)c2ccccc2c1O [menaquinol 7]
percentage of the initial value of the reduced form ([2]; T = 0): 100%
percentage of the initial value of the reduced form ([2]; T = 1 month): 95.4%
percentage of the initial value of the reduced form ([2]; T = 2 months): 98.9%
percentage of the initial value of the reduced form ([2]; T = 3 months): 97.9%
% vitamin oxidised ([2]; Time 0 days): 18.41%
% vitamin reduced ([2]; Time 0 days): 81.58%
% vitamin oxidised ([2]; Time 3 days): 23.67%
% vitamin reduced ([2]; Time 3 days): 76.24%
% vitamin oxidised ([2]; Time 6 days): 36.69%
% vitamin reduced ([2]; Time 6 days): 63.16%
% vitamin oxidised ([2]; Time 10 days): 51.48%
% vitamin reduced ([2]; Time 10 days): 48.27%
% vitamin oxidised ([2]; Time 11 days): 52.67%
% vitamin reduced ([2]; Time 11 days): 47.04%
% vitamin oxidised ([2]; Time 12 days): 61.09%
% vitamin reduced ([2]; Time 12 days): 38.44%
